Experimental data reported in ChEMBL document CHEMBL3046233, “Synthesis and anticonvulsant activity of 4-(2-phenoxyphenyl)semicarbazones” (Med Chem Res, 2009).

What was measured:
Rattus norvegicus [1] = assay: Anticonvulsant activity in Rattus norvegicus Wistar (rat) pentylenetetrazole-induced kindling model assessed as seizure latency time at 30 mg/kg, ip administered 30 min before pentylenetetrazole challenge; type: functional; conditions: route intraperitoneal
Rattus norvegicus [2] = assay: Anticonvulsant activity in Rattus norvegicus Wistar (rat) pentylenetetrazole-induced kindling model assessed as seizure time at 30 mg/kg, ip administered 30 min before pentylenetetrazole challenge; type: functional; conditions: route intraperitoneal
Rattus norvegicus [3] = assay: Neurotoxicity in Rattus norvegicus Wistar (rat) at 300 mg/kg, ip by rotarod test; type: toxicity, organism-based; design: dose 300 mg/kg, route intraperitoneal; conditions: in vivo
Rattus norvegicus [4] = assay: Anticonvulsant activity in Rattus norvegicus Wistar (rat) pentylenetetrazole-induced kindling model assessed as seizure latency time at 200 mg/kg, ip administered 30 min before pentylenetetrazole challenge; type: functional; conditions: route intraperitoneal
Rattus norvegicus [5] = assay: Anticonvulsant activity in Rattus norvegicus Wistar (rat) pentylenetetrazole-induced kindling model assessed as seizure latency time at 100 mg/kg, ip administered 30 min before pentylenetetrazole challenge; type: functional; conditions: route intraperitoneal
Rattus norvegicus [6] = assay: Anticonvulsant activity in Rattus norvegicus Wistar (rat) pentylenetetrazole-induced kindling model assessed as seizure time at 200 mg/kg, ip administered 30 min before pentylenetetrazole challenge; type: functional; conditions: route intraperitoneal
Rattus norvegicus [7] = assay: Anticonvulsant activity in Rattus norvegicus Wistar (rat) pentylenetetrazole-induced kindling model assessed as seizure time at 100 mg/kg, ip administered 30 min before pentylenetetrazole challenge; type: functional; conditions: route intraperitoneal

Row | Structure (SMILES) | Time (Rattus norvegicus [1]) [s] | Time (Rattus norvegicus [2]) [s] | further results
1 | C/C(=N\NC(=O)Nc1ccccc1Oc1ccccc1)c1ccccc1[N+](=O)[O-] | 639.2 | 40.6 | –
2 | C/C(=N\NC(=O)Nc1ccccc1Oc1ccccc1)c1cccc([N+](=O)[O-])c1 | 832.2 | 32.2 | –
3 | C/C(=N\NC(=O)Nc1ccccc1Oc1ccccc1)c1ccc([N+](=O)[O-])cc1 | 404.25 | 64.25 | –
4 | C/C(=N\NC(=O)Nc1ccccc1Oc1ccccc1)c1ccc(C)cc1 | 405.42 | 71.42 | –
5 | C/C(=N\NC(=O)Nc1ccccc1Oc1ccccc1)c1ccccc1O | 532.4 | 33.2 | –
6 | CSc1ccc(/C(C)=N/NC(=O)Nc2ccccc2Oc2ccccc2)cc1 | 189.4 | 75 | –
7 | COc1ccc(OC)c(/C(C)=N/NC(=O)Nc2ccccc2Oc2ccccc2)c1 | 110 | 69.16 | –
8 | O=C(N/N=C/c1ccccc1)Nc1ccccc1Oc1ccccc1 | 508.5 | 48.5 | –
9 | O=C(N/N=C/c1cccc(Br)c1)Nc1ccccc1Oc1ccccc1 | 229.33 | 81 | –
10 | O=C(N/N=C/c1ccccc1[N+](=O)[O-])Nc1ccccc1Oc1ccccc1 | 858.66 | 36.5 | –
11 | O=C(N/N=C/c1cccc([N+](=O)[O-])c1)Nc1ccccc1Oc1ccccc1 | 636.2 | 40.2 | –
12 | O=C(N/N=C/c1ccc([N+](=O)[O-])cc1)Nc1ccccc1Oc1ccccc1 | 293.75 | 79.75 | –
13 | Cc1ccc(/C=N/NC(=O)Nc2ccccc2Oc2ccccc2)cc1 | 418.71 | 59.28 | –
14 | O=C(N/N=C/c1ccccn1)Nc1ccccc1Oc1ccccc1 | 1161.6 | 23 | Activity (Rattus norvegicus [3]): Non-toxic
15 | O=C(N/N=C/c1cccnc1)Nc1ccccc1Oc1ccccc1 | 903 | 40.4 | –
16 | O=C(N/N=C/c1ccncc1)Nc1ccccc1Oc1ccccc1 | 969.83 | 31.16 | Activity (Rattus norvegicus [3]): Non-toxic
17 | CSc1ccc(/C=N/NC(=O)Nc2ccccc2Oc2ccccc2)cc1 | 244.75 | 66.5 | –
18 | COc1ccc(OC)c(/C=N/NC(=O)Nc2ccccc2Oc2ccccc2)c1 | 150.16 | 54.83 | –
19 | C/C(=N\NC(=O)Nc1ccccc1Oc1ccccc1)c1ccccc1 | 293.75 | 48.75 | –
20 | C/C(=N\NC(=O)Nc1ccccc1Oc1ccccc1)c1cccc(Br)c1 | 209.66 | 85.33 | –
21 | CCCC(CCC)C(=O)[O-].[Na+] [VALPROATE SODIUM] | – | – | Time (Rattus norvegicus [4]): 900.62 s; Time (Rattus norvegicus [5]): 817.42 s; Time (Rattus norvegicus [6]): 26.5 s; Time (Rattus norvegicus [7]): 40 s
